Experimental data as given in PubChem BioAssay (NCI).
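Cells were grown in 96-well plates and exposed to each compound for 48 hours at five concentrations; endpoints were interpolated linearly between bracketing concentrations, or set to the highest concentration if not reached. Abbreviation: GI50, concentration required for 50% inhibition of growth. TGI is the concentration that stops growth completely.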

How the values were obtained:
Assay in all cases: DTP human tumour cell line panel, 48 h
MDA-MB-435 = system: MDA-MB-435
SNB-19 CNS = system: SNB-19 CNS
MCF7 breast = system: MCF7 breast
KM12 colon = system: KM12 colon
SK-MEL-5 melanoma = system: SK-MEL-5 melanoma
SK-MEL-2 melanoma = system: SK-MEL-2 melanoma
SK-MEL-28 melanoma = system: SK-MEL-28 melanoma
A549 NSCLC = system: A549 NSCLC
CCRF-CEM leukemia = system: CCRF-CEM leukemia
HCC-2998 colon = system: HCC-2998 colon

Structure (SMILES)	GI50 (MDA-MB-435) [µM]	TGI (MDA-MB-435) [µM]	GI50 (SNB-19 CNS) [µM]	TGI (SNB-19 CNS) [µM]	GI50 (MCF7 breast) [µM]	TGI (MCF7 breast) [µM]	GI50 (KM12 colon) [µM]	TGI (KM12 colon) [µM]	GI50 (SK-MEL-5 melanoma) [µM]	TGI (SK-MEL-5 melanoma) [µM]	GI50 (SK-MEL-2 melanoma) [µM]	TGI (SK-MEL-2 melanoma) [µM]	GI50 (SK-MEL-28 melanoma) [µM]	TGI (SK-MEL-28 melanoma) [µM]	GI50 (A549 NSCLC) [µM]	TGI (A549 NSCLC) [µM]	GI50 (CCRF-CEM leukemia) [µM]	TGI (CCRF-CEM leukemia) [µM]	GI50 (HCC-2998 colon) [µM]	TGI (HCC-2998 colon) [µM]
COc1ccccc1NC(=O)c1ccc(/C=C/C(=O)c2nccn2C)cc1	0.548	1.3	0.553	1.59	0.404	0.977	0.44	0.872	0.648	1.68	1.9	10.8	0.57	1.44	0.74	8.75	0.669	8.01	0.487	0.912
COc1ccc(CNC(=O)COc2ccc(/C=N/Nc3nc4ccccc4s3)cc2)cc1	3.47	> 100	2.69	12.6	3.52	27.5	2.51	> 100	2.01	5.06	3.84	16	4.35	> 100	3.12	87.6	> 100	> 100	5.37	> 100
N#Cc1cnn2ccn(C3OC(COC(=O)c4ccccc4)C(OC(=O)c4ccccc4)C3OC(=O)c3ccccc3)c12 (stereo not given)		> 21.5		> 21.5		> 46.4		21.5		> 21.5		0.843		> 21.5		> 21.5		> 21.5		> 21.5
CC[n+]1ccc2c(c1)C(=O)c1nccc3c1c-2nc1ccccc13	2.34	7.24	0.212	0.856	0.587	4.84	2.41	15.2	1.35	5.54	1.35	6.08	1.84	7.64	0.958	13.5	1.39	14.4	1.05	4.97
CCOC(=O)c1c(N)n(-c2ccccc2)c(=S)n(-c2ccccc2)c1=O		> 100		> 100		> 100		> 100		> 100		> 100		> 100		> 100		> 100		> 100
COc1ccc(-n2cc(-c3ccc(OC)c(OC)c3)[nH]c2=S)cc1Cl	> 100	> 100	> 100	> 100	> 100	> 100	> 100	> 100	> 100	> 100	> 100	> 100	> 100	> 100	> 100	> 100	> 100	> 100	> 100	> 100
COc1ccc(CN2CCCC(C(=O)c3ccc(C(F)(F)F)cc3)C2)c(O)c1 (stereo not given)	23.4	83.3	26.3	> 100	18	54.7	30.5	86	15.9	29.8	27.5	65.8	17.1	43.9	36.4	> 100	35.2	> 100	24	56.3
